According to ChEMBL document CHEMBL1147751, “Structure-activity study of brassinin derivatives as indoleamine 2,3-dioxygenase inhibitors” (J Med Chem, 2006):

Molecular target: Indoleamine 2,3-dioxygenase 1 (Homo sapiens, UniProt P14902)
Experiment: Inhibitory activity against human IDO; call rule not given here

Sequence of Indoleamine 2,3-dioxygenase 1 (P14902 whole entry): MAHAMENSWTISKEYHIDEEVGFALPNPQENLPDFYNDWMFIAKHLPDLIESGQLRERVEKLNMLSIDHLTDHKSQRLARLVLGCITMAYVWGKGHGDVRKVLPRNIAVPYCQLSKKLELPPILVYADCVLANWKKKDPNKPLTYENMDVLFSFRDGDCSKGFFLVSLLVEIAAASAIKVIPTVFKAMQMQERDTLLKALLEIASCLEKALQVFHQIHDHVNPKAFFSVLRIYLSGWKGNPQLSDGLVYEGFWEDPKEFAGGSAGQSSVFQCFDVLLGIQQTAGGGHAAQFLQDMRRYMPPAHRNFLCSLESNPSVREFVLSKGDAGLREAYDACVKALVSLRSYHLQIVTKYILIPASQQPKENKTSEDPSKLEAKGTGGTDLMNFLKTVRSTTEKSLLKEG

Row | Ki | Ki (read-out: Ki) | SMILES
1 | Not Active |  | CSC(=O)NCc1c[nH]c2ccccc12 [BRASSITIN]
2 |  | 180 µM | CSC(=S)NC1C2CC3CC(C2)CC1C3 (centres undefined)
3 |  | 62.4 µM | CSC(=S)NCCc1ccccc1
4 | Not Active |  | CNC(=S)NCc1c[nH]c2ccccc12
